Data taken from patent publication US20030004165A1, “Polyazanaphthalene compounds and pharmaceutical use thereof” (AJINOMOTO CO. INC, priority 1999, published 2003).

Key:
[1] = tested on: MMP-3 (stromelysin-1) production by human joint normal synovial interstitial cells; experiment: Inhibition of IL-1β-induced MMP-3 production from synovial cells; format: cell-based; conditions: IL-1β 0.5 ng/ml stimulation, 16 to 18 hours, MMP-3 in culture fluid
Description: Evaluation of Inhibiting Production of Matrix Metalloprotease (MMP) Collected From Synovial Cells
The human joint normal synovial interstitial cells (cell System-SS cells, Dainippon Pharmaceutical Co., Ltd.) were seeded on a 96-well plate in a concentration of 1×10^4 cells/well and cultured overnight. 30 minutes after the addition of the subject pharmaceutical compounds in a proper concentration, IL-1β was added to each well so as to obtain the final concentration of 0.5 ng/ml. After culturing overnight (16 to 18 hours) again, a culture fluid was collected and the amount of MMP-3 (stromelysin-1) in the culture fluid was determined. MMP-3 was determined with a test kit for determining stromelysin-1 (SL) in serum (Fuji Chemical Industries Ltd.), in accordance with an instruction book attached to the kit. When no stimulation was seen, the production amount was defined as 0% and when only […] stimulation was seen, the amount was defined as 100%.

[2] = tested on: TNF α production by Balb/c mouse peritoneal cells; experiment: Inhibition of LPS-induced TNF α production from mouse peritoneal cells; format: cell-based; conditions: LPS 10 μg/ml stimulation, 16 to 18 hours, TNF α by sandwich ELISA
Description: Evaluation of Inhibiting Production of Tumor Necrosis Factors (TNF)
RPMI medium was injected into a peritoneal cavity of Balb/c mouse (Charles River Japan, Inc.) and the peritoneal cells were collected. The peritoneal cells were seeded on a 96-well plate in a concentration of 1×10^4 cells/well. 30 minutes after the addition of the subject pharmaceutical compounds in a proper concentration, LPS (sigma, L-5886) was added to each well so as to obtain the final concentration of 10 μg/ml. After culturing overnight (16 to 18 hours) again, a culture fluid was collected and the amount of TNF α in the culture fluid was determined. Mouse TNF α was determined by the means of a sandwitch ELISA and anti-mouse TNF a hamster monoclonal antibody (Genzyme 1221-00) was used as the first antibody, anti-mouse TNF α rabbit polyclonal antibody (Genzyme, IP-400) as the second antibody, and alkaliphosphatase conjugate anti-rabbit IgG polyclonal goat antibody as the third antibody. Then, optical absorbance of alkaliphosphatase substrate (p-nitrophosphate) was determined and converted into the production amount. When no stimulation was seen, the production amount was defined as 0% and when only […] stimulation was seen, the amount was defined as 100%.

Structure (SMILES) | MMP Inhibition Activity (IC50) [1] [mg/L] | TNF Inhibition Activity (IC50) [2] [mg/L]
COc1ccc(-c2cnc3ccncc3c2)cc1OC [Example 1, 3-(3,4-Dimethoxyphenyl)-1,6-Naphtylidine] | 1.25 | 0.5
COc1ccc(-c2cnc3cc(N)ncc3c2)cc1OC.Cl [Example 18, 7-Amino-3-(3,4-Dimethoxyphenyl)-1,6-Naphthylidine Hydrochloride] | 0.31 | 0.6
COc1ccc(-c2cnc3ccnc(Cl)c3c2)cc1OC [Example 19, 5-Chloro-3-(3,4-Dimethoxyphenyl)-1,6-Naphthylidine] | – | 1
COc1ccc(-c2cnc3ccnc(N)c3c2)cc1OC [Example 20, 5-Amino-3-(3,4-Dimethoxyphenyl)-1,6-Naphthylidine] | 0.16 | 0.3
COc1ccc(-c2cnc3cnccc3c2)cc1OC [Example 22, 3-(3,4-Dimethoxyphenyl)-1,7-Naphthylidine] | 1.25 | 0.02
COc1ccc(-c2cnc3ncccc3c2)cc1OC [Example 23, 3-(3,4-Dimethoxyphenyl)-1,8-Naphthylidine] | – | 0.1
COc1ccc(-c2ccc3cnccc3n2)cc1OC [Example 24, 2-(3,4-Dimethoxyphenyl)-1,6-Naphthylidine] | 1.25 | 0.6
COc1ccc(-c2cnc3ccncc3c2)cc1OC1CCCC1 [Example 26, 3-(3-Cyclopentyloxy-4-Methoxyphenyl)-1,6-Naphthylidine] | – | 0.01
